These are literature values, as cited in patent US20130289102A1, “AMYRIS ALCOHOL AND ITS ESTER FOR TREATING ACNE” (Trinity Laboratories, Inc., priority 2010, published 2013).

The conditions of data set [1]: mouse, in vivo, po.
Another data set deals with estrogenic activity. As to conditions: among the known phytoestrogens.
For data set [2] the following is noted: up to 292 mg/kg over 1 to 3 months.
Another data set concerns creatine kinase activity. As to conditions: rat uterus, epiphyseal cartilage, diaphyseal bone, aorta, left ventricle of the heart.
Data set [3] deals with UVB-induced pigmented skins.
A further data set concerns the target T1, human estrogen receptor (Homo sapiens, UniProt P03372).
T1 sequence (P03372 1-595): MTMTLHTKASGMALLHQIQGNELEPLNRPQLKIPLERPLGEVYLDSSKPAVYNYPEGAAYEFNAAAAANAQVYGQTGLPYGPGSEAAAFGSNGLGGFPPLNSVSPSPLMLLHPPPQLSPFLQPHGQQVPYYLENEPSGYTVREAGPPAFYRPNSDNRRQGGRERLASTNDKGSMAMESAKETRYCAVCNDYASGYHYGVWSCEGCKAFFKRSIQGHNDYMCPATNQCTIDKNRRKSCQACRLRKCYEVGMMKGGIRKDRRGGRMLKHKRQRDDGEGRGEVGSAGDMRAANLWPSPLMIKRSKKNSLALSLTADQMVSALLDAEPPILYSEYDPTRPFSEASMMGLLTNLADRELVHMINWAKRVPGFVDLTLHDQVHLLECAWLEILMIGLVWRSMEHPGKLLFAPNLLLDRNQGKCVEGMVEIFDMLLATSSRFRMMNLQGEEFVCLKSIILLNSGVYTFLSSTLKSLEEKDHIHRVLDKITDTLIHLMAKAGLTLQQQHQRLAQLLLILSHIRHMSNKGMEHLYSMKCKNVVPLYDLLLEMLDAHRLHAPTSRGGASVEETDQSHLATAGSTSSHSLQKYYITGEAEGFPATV

Data set [4] relates to superoxide anion production. As to conditions: 0.33 μg/ml to 33.3 μg/ml.
A further data set deals with cyclooxygenase. As to conditions: 6.25 μg/ml, with respect to the control.
The test system of the next data set is neurogenic inflammation. As to conditions: following electrical stimulation of rat trigeminal ganglion.
Data set [5] concerns the target presynaptic omega-agatoxin IVA-sensitive (P/Q-type) Ca^2+ channel (Rattus norvegicus, UniProt P54282).
The test system of data set [6] is post-ischemic brain injury. As to conditions: focal ischemia in rats.
A further data set deals with angiogenesis. As to conditions: mice.
Data set [7] concerns porcine brain microvascular endothelial cells. As to conditions: 50-100 microM.
For data set [8], the system named is extracellular signal-regulated kinase (ERK) 1/2. As to conditions: 100 microM.
For data set [9], the target named is T2, nicotinic ACh receptor channel (Mus musculus, UniProt P02716+P04756+P09690+P20782).
T2 construct: the nicotinic acetylcholine receptor channel in mouse skeletal muscles; host or cells: mouse skeletal muscle
T2 sequence (P04756 21-457): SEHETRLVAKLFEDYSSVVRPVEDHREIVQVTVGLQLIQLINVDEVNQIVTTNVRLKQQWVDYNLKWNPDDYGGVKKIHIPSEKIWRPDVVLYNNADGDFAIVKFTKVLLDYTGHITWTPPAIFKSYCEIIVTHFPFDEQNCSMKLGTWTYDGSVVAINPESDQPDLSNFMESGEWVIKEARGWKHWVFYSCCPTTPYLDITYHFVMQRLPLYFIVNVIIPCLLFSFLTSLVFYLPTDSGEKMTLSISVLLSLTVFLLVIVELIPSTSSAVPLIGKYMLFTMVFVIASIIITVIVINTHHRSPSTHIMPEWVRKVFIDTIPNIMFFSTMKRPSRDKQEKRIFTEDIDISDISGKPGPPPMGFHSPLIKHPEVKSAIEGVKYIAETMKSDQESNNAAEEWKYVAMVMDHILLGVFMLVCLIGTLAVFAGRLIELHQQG
T2 sequence (P09690 24-501): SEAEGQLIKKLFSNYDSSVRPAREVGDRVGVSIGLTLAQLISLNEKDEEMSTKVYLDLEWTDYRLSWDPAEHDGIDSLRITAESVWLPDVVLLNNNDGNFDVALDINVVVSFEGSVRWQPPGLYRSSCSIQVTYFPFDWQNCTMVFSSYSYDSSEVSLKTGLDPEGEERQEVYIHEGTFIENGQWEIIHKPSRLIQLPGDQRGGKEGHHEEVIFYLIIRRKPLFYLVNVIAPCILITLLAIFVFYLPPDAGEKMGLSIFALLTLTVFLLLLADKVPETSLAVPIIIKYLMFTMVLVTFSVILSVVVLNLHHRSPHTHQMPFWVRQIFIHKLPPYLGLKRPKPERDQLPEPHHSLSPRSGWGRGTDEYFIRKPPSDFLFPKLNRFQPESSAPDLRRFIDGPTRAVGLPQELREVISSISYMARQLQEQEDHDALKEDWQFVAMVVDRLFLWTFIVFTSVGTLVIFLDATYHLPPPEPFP
T2 sequence (P02716 25-520): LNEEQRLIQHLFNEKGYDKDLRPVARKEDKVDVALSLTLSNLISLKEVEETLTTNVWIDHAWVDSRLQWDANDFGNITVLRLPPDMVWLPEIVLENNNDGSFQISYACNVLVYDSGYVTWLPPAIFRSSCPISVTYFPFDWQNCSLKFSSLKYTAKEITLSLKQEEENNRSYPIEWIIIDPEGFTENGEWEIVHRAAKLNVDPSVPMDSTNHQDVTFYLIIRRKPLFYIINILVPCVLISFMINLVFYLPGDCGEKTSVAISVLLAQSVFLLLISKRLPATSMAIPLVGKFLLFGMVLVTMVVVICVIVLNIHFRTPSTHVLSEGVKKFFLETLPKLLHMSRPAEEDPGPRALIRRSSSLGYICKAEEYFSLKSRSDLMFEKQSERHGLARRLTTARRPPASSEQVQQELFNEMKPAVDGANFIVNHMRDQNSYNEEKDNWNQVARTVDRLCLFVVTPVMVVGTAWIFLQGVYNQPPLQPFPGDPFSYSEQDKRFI
T2 sequence (P20782 21-493): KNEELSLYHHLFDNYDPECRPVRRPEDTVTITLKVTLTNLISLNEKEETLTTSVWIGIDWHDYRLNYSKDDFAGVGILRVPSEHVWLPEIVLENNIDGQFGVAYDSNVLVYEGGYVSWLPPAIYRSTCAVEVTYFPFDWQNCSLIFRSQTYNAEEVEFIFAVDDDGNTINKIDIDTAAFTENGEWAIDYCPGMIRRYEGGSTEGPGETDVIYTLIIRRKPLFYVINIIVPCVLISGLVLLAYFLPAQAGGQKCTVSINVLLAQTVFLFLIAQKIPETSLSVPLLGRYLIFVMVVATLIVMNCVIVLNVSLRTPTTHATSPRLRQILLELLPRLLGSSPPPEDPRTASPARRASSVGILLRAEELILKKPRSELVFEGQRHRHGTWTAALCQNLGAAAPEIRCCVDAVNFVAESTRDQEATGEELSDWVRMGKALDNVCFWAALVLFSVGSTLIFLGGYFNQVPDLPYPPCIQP

The test system of another data set is Na^+, K(+)-ATPase. As to conditions: compared with other phosphatases examined.
The test system of data set [10] is human umbilical vein endothelial cells (HUVEC).

Sequence of presynaptic omega-agatoxin IVA-sensitive (P/Q-type) Ca^2+ channel (P54282 whole entry): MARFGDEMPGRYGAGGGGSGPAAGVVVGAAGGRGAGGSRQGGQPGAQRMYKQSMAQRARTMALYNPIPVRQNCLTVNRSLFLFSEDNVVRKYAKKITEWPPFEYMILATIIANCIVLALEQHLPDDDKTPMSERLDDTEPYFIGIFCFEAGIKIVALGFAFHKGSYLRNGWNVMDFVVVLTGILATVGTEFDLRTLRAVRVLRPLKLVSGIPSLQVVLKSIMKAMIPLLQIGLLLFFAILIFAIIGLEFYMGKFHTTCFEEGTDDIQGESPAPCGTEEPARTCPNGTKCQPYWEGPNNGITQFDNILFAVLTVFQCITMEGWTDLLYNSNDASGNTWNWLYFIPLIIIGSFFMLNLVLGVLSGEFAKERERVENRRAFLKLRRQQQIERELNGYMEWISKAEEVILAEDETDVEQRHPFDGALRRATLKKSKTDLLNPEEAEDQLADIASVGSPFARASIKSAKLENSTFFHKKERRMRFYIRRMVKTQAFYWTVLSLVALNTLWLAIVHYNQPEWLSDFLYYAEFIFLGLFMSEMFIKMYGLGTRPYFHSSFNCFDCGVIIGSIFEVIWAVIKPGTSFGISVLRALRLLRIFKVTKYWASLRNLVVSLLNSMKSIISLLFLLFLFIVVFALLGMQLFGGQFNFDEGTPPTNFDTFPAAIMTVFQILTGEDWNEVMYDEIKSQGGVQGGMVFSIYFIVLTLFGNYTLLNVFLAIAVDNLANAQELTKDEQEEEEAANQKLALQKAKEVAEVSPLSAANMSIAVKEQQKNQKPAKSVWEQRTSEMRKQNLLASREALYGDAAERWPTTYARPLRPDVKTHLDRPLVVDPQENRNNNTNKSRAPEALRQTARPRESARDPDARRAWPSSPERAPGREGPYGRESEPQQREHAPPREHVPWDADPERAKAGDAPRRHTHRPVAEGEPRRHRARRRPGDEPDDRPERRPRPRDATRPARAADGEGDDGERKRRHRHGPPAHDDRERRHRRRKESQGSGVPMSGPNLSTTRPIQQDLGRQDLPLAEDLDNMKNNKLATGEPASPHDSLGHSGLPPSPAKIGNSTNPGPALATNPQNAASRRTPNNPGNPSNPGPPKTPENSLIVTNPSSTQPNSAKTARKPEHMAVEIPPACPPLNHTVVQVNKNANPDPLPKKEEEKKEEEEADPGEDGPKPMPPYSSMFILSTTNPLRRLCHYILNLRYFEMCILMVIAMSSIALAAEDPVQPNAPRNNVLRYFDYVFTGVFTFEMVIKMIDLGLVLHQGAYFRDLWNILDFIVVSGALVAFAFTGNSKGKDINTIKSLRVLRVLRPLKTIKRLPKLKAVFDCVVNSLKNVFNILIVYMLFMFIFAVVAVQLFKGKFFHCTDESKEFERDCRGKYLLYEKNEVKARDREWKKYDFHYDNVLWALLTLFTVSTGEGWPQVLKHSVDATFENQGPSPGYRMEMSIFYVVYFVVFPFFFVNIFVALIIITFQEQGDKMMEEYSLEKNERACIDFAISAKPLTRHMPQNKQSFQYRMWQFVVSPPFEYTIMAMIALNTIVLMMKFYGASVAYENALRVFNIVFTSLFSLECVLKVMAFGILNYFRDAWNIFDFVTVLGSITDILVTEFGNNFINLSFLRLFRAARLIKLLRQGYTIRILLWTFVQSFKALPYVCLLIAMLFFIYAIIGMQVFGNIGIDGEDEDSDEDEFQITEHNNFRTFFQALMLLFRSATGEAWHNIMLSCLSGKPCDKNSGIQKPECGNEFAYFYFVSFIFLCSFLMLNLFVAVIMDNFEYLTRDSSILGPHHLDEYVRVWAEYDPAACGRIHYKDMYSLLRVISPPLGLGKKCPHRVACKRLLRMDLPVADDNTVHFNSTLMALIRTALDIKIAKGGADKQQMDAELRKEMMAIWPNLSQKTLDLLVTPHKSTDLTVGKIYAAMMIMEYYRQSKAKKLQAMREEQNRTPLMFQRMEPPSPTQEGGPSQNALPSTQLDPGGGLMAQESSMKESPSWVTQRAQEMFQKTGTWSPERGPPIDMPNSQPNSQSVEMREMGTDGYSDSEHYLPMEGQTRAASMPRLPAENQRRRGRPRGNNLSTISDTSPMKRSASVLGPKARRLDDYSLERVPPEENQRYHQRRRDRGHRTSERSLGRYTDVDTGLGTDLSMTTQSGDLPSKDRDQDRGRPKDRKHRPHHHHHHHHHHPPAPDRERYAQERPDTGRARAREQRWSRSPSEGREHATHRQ

Consider `C[C@@H]1CC[C@H]2[C@@H](C)C(=O)O[C@@H]3O[C@@]4(C)CC[C@@H]1[C@]32OO4` [Artemisinin], for which the LD50 – broadly, the dose expected to kill half of the subjects tested – in [1] is recorded as 4228 mg/kg.
As for `CC1(C)[C@H]2C(=COc3cc(O)ccc32)[C@@H]2C(=O)C[C@]3(O)C[C@H]1[C@H]2[C@H]3O` [Deoxymiroestrol], in the data set on estrogenic activity, the estrogenic activity result is recorded as “highest estrogenic activity among the known phytoestrogens”.
In the case of `CC1(C)[C@H]2C(=COc3cc(O)ccc32)[C@]2(O)C(=O)C[C@]3(O)C[C@H]1[C@H]2[C@H]3O` [Miroestrol], in the data set with estrogenic activity, the estrogenic activity result was “highest estrogenic activity among the known phytoestrogens”.
Regarding `CO[C@H]1O[C@@H]2O[C@@]3(C)CC[C@H]4[C@H](C)CC[C@@H]([C@H]1C)[C@@]24OO3` [artemether], the toxicity in monkeys entry in [2] is “no toxicity”.
Turning to `CC1(C)C=Cc2c(ccc3c2OC[C@@H](c2ccc(O)cc2O)C3)O1` [glabridin, Glabridin], in the data set with creatine kinase activity, the creatine kinase activity result is on record as “stimulating creatine kinase activity”. The “pigmentation induced by UVB radiation” value in data set [3] (0.5% solution, topical, backs of brownish guinea pigs) is given as “significantly reduced pigmentation”. In addition, in data set [3] (0.5% solution, topical, guinea pig skin), the “inflammation induced by UVB irradiation” value was “decreased the inflammation”. The DOPA-positive melanocytes entry in data set [3] (treated skin, epidermal histology) was “reduced in number”. Moreover, the “effect on growth of breast tumor cells, low concentrations” value with breast tumor cells (10 nM-10 μM, estrogen receptor-dependent) is on record as “growth-promoting effect”. Besides, in the data set with breast tumor cells (>15 μM, estrogen receptor-independent), the “effect on growth of breast tumor cells, high concentrations” value was “antiproliferative activity”. For the same compound, the “binding to estrogen receptor” value at human estrogen receptor is reported as “binding to the human estrogen receptor”. Also, in [4], the “superoxide (active oxygen) formation” value is “inhibited superoxide (active oxygen) formation”. Besides, in the data set on cyclooxygenase, the cyclooxygenase activity result was “inhibited the cyclooxygenase activity”.
Consider `CC1=CCC[C@]2(C)CC[C@@H](C(C)(C)O)C[C@@H]12` [α-eudesmol], for which the “inhibition of neurogenic inflammation” value with neurogenic inflammation was “potently inhibits”. The “inhibition of P/Q-type Ca2+ channel” value in [5] is on record as “potently inhibits”. For the same compound, the post-ischemic brain injury result in [6] is reported as “attenuates post-ischemic brain injury”.
As for `C=C1CCC[C@]2(C)CC[C@@H](C(C)(C)O)C[C@@H]12` [β-eudesmol], in the data set with angiogenesis, the “angiogenesis in adjuvant-induced granuloma” value was “significantly inhibited angiogenesis” and the “angiogenesis in subcutaneously implanted Matrigel plugs” value is given as “significantly inhibited angiogenesis”. Moreover, the “proliferation of porcine brain microvascular endothelial cells” value in [7] is recorded as “inhibited”. For the same compound, the “phosphorylation of ERK 1/2 induced by bFGF or vascular endothelial growth factor” value in data set [8] is on record as “blocked the phosphorylation”. Also, in the data set with PC-12 cells (100 and 150 μM), the neurite extension result was “significantly induced neurite extension”. Also, the “[3H]thymidine incorporation” value in the data set with PC-12 cells (at the highest concentration (150 μM)) is “suppression of [^3H]thymidine incorporation”. In addition, in [9], the “desensitization of the nicotinic ACh receptor” value was “accelerated the desensitization”. Also, the “nicotinic ACh receptor channel block” value in data set [9] (mouse skeletal muscles) was “blocked the nicotinic ACh receptor channel in both the open and closed conformations”. For the same compound, the “inhibition of Na+,K+-ATPase activity” value with Na^+, K(+)-ATPase is listed as “most strongly among the various kinds of phosphatases examined”. Besides, in [10], the “HUVEC migration stimulated by bFGF” value is on record as “inhibited the HUVEC migration” and the “tube formation by HUVEC in Matrigel” value is listed as “inhibited”. Further, the “proliferation of HUVEC” value in data set [10] (50-100 microM) is given as “inhibited”.
